How the values were obtained:
γH2AX foci in A549 cells = assay: Immunofluorescence of γH2AX and TRF2 foci; assay type: cell-based, human; settings: A549, 1.5 μM, 24 h
Experimental: (§1) The cells (5 × 10^4 cells) were seeded on 35-mm glass-bottomed dishes and grown for 24 h for attachment. Then old medium was replaced by fresh DMEM containing 1.5 μM BMPQ-1 and incubated for 24 h. After washed three times with PBS buffer, the cells were fixed in 4% paraformaldehyde/PBS for 15 min and then permeabilized with 0.3% Triton-X 100/PBS at 37°C for 20 min. Then the cells were blocked with 5% BSA/PBS at 37°C for 1 h. Finally, the cells were incubated with primary antibodies at 37°C for 3 h. After that, the cells were washed six times with blocking buffer, and were then incubated with secondary antibodies at 37°C for 3 h. Finally, the cells were washed six times with PBS buffer again. The digital images were recorded using a confocal laser scanning microscopy (Olympus FV1000) and analyzed with ImageJ software. One hundred nuclei were counted in each group. […]
(§2) Figure 2. […] (B) Quantification of the number of γH2AX foci per nucleus in A549 cells treated with or without BMPQ-1. (C) Quantification of the colocalization of γH2AX and TRF2 per nucleus in A549 cells treated with or without BMPQ-1. […] (E) Quantification of the number of BG4 foci per nucleus in A549 cells treated with or without BMPQ-1. (F) Quantification of the colocalized BG4 and TRF2 per nucleus in A549 cells treated with or without BMPQ-1.

TTA69 = assay: CD melting, DNA stabilization; assay type: binding, human; settings: 5 µM DNA, 20 µM BMPQ-1, 10 mM Tris-HCl, 50 mM KCl, pH 7.4
Experimental: CD studies were performed on a Chirascan circular dichroism spectrophotometer (Jasco, Easton, MD, USA). A quartz cuvette with a 1 mm path length was used to record the spectra over a wavelength range of 220–320 nm with a 1 nm bandwidth. All the samples were prepared in buffer containing 10 mM Tris–HCl pH 7.4, 100 mM KCl. To ensure the concentrations of G-quadruplex units to be 20 μM, multiple G-quadruplexes forming oligonucleotides with different concentrations were used (TTA (G1) 20 μM, TTA45 (G2) 10 μM, TTA69 (G3) 6.67 μM, TTA93 (G4) 5 μM, TTA117 (G5) 4 μM, TTA141 (G6) 3.33 μM). The DNA samples were heated at 95°C for 5 min and cooled down slowly to room temperature. 20, 40 and 60 μM BMPQ-1 were mixed with DNAs separately. Melting curves were measured at 295 nm and the range of temperature was 4–95°C.

[1] = system: BG4 foci (DNA G-quadruplexes) in A549 cells; assay: Immunofluorescence of BG4 and TRF2 foci; assay type: cell-based, human; settings: A549, 1.5 μM, 24 h
Experimental: as §1, §2

[2] = system: c-MYC Pu22 (DNA, G4) TGAGGGTGGGTAGGGTGGGTAA; assay: ligand fluorescence enhancement; settings: 100 mM K+ (KCl) plus potassium phosphate; 10 mM K2HPO4/KH2PO4 pH 7.0; 3 µM compound, 4 µM DNA; enhancement below 3-fold
[3] = system: TTA45 (DNA, G4) GGGTTAGGGTTAGGGTTAGGGTTAGGGTTAGGGTTAGGGTTAGGG; assay: ligand fluorescence enhancement; settings: 100 mM K+ (KCl) plus potassium phosphate; 10 mM K2HPO4/KH2PO4 pH 7.0; 3 µM compound, 2 µM DNA; 10-fold increase at 521 nm
TTA45 = assay: smFRET analysis of TTA45 conformational ensemble; assay type: binding, human; settings: from high-FRET population against BMPQ-1 concentration; read-out: dissociation constant (KD)
Experimental: 5′- FAM and 3′-Cy5 labeled TTA45 oligonucleotides were annealed in the buffer of 10 mM Tris–HCl (pH 7.4) and 100 mM KCl, by heating to 95°C for 5 min and slowly cooling down to room temperature. smFRET data collection and analysis were performed as previously described ([43]). In brief, an A1 confocal microscope (Nikon, Japan) coupled to two picosecond pulsed diode laser heads (LDH-P-C-485B and LDH-P-C-640B, PicoQuant, Germany) and two SPCM-AQRH detectors (Excelitas, Canada) was used for fluorescence excitation and emission detection. A 60 × water immersion objective (WI 60×, NA 1.20, Nikon, Japan) was used for confocal laser microscopy, and the pinhole size was set at ∼100 μm. The laser power before the objective was set at ∼100 μW for the 485-nm laser and ∼35 μW for the 640-nm laser. […]
The smFRET measurements were performed at room temperature in pH 7.4 buffer containing 10 mM Tris–HCl, 100 mM KCl, and 0.01% (v/v) Tween 20, with additional 1 mM ascorbic acid and 1 mM methylviologen for photo bleaching and blinking minimization ([44]). […] The exact FRET efficiencies were calculated based on our calibrated parameters for the instrument and fluorophores, and the FRET efficiency distribution was analyzed with a multi-Gaussian mixture using a handwritten script.

Cc1ccc(Cn2cc3c(-c4ccc5c(c4)OCO5)nnc-3c3cc4c(cc32)OCO4)cc1 [BMPQ-1]
co-localization between γH2AX foci and TRF2 (γH2AX foci in A549 cells): increase on the co-localization between γH2AX foci and TRF2 was observed with statistical significance
average number of γH2AX foci in individual cells (γH2AX foci in A549 cells; compared with control): trebled
ΔTm (°C) TTA69 (TTA69): 13.8 °C
amount of BG4 foci in the nucleus [1]: significant increase
amount of co-localized BG4 and TRF2 foci [1]: significantly increased
binding [2]: weak
binding [3]: yes
Kd (TTA45): 530 nM

From PMC7672424 (Nucleic Acids Research, 2020)
